Test system: gel-filtered human platelets
Test: Inhibition of ADP-stimulated platelet aggregation (IC50 Plaggin)
Type: cell-based
Settings: ADP-initiated (10 mM ADP) aggregation of gel-filtered human platelets, fibrinogen 100 ug/ml, Ca2+ 1 mM, 37° C.
Experimental: Platelet aggregation is measured at 37° C. in a Chronolog aggregometer. The reaction mixture contains gel-filtered human platelets (2×10^8 per ml), fibrinogen (100 micrograms per ml (ug/ml)), Ca^2 +(1 mM), and the compound to be tested. The aggregation is initiated by adding […] ADP 1 minute after the other components are added. The reaction is then allowed to proceed for at least 2 minutes. The extent of inhibition of aggregation is expressed as the percentage of the rate of aggregation observed in the absence of inhibitor. The IC50 is the dose of a particular compound inhibiting aggregation by 50% relative to a control lacking the compound.
In addition to the following preparative procedures, several examples of in vitro bioactivity of compounds within the scope of the present invention are indicated. To illustrate, one test which is used to evaluate fibrinogen receptor antagonist activity is based on evaluation of inhibition of ADP-stimulated platelets. Aggregation requires that fibrinogen bind to and occupy the platelet fibrinogen receptor site. Inhibitors of fibrinogen binding inhibit aggregation. In the ADP-stimulated platelet aggregation assay used to determine inhibition associated with the compounds claimed in the instant invention, human platelets are isolated from fresh blood, collected into acid citrate/dextrose o by differential centrifugation followed by gel filtration on Sepharose 2B in divalent ion-free Tyrode's buffer (pH 7.4) containing 2% bovine serum albumin.

First: CCCCS(=O)(=O)N[C@@H](CNC(=O)C1CC1C(=O)NCCC1CCNCC1)C(=O)O (some centres unmarked)
Second: CCCCS(=O)(=O)N[C@@H](CNC(=O)[C@@H]1C[C@H]1C(=O)NCCC1CCNCC1)C(=O)O
The IC50 of the first is 2.7-fold higher: 210 nM for the first, 77 nM for the second. The second is the more potent here.

First: CCCCS(=O)(=O)N[C@@H](CNC(=O)[C@H]1C[C@@H]1C(=O)NCCC1CCNCC1)C(=O)O
Second: CCCCS(=O)(=O)N[C@@H](CCNC(=O)[C@@H]1C[C@H]1C(=O)NCCC1CCNCC1)C(=O)O
The IC50 of the first is 6-fold lower: 580 nM for the first, 3500 nM for the second. The first is the more potent here.

Going from CCCCS(=O)(=O)N[C@@H](CCNC(=O)[C@H]1C[C@@H]1C(=O)NCCC1CCNCC1)C(=O)O to CCCCS(=O)(=O)N[C@@H](CNC(=O)C1CC1CC(=O)NCCC1CCNCC1)C(=O)O (some centres unmarked), the IC50 falls from 17000 nM to 140 nM (120-fold).

For C[C@H](CC(=O)O)NC(=O)[C@@H]1C[C@H]1C(=O)NCCC1CCNCC1, the IC50 was 17000 nM.

Test system: gp IIb/IIIa complex
Test: not given
Settings: cited from earlier work

For Echistatin, the “affinity for the gp IIb/IIIa complex” value is listed as “high affinity”.

Source: patent publication US5494921A, “Fibrinogen receptor antagonists” (Merck & Co., Inc., priority 1994, dated 1996)
